According to patent US20130089601A1, “METHOD FOR TREATING ATHEROSCLEROSIS” (KAOHSIUNG MEDICAL UNIVERSITY, priority 2009, published 2013):

How the values were obtained:
VCAM-1 = assay: Real-time qPCR of VCAM-1 mRNA in HUVECs co-cultured with transfected HASMCs; type: cell-based, human; details: co-cultured with microRNA-195-transfected HASMCs
Description: (§1) HASMCs were transfected with negative control microRNA or microRNA-195 with or without the presence of oxLDL. MicroRNA-195-transfected HASMCs were co-cultured with HUVEC. Real-time qPCR analysis of mRNA levels for genes surrogating endothelial functions as well as atherosclerosis, such as vascular cell adhesion molecule-1 (VCAM-1), […] (TNF-a) and interleukin-6 (IL-6), and vasodilation gene, endothelial nitric oxide synthase (eNOS), were determined in HUVECs.

apoE−/− mice = system: apoE−/− mice
Source text: Lentivector Expression System was purchased from System Biosciences. The microRNA expression vectors pCDH-CMV-MCS-EF1- GreenPuro vector (System Biosciences, SBI) contain a CMV-driven EGFP reporter. The full length sequence of microRNA-195 was amplified from genomic DNA by polymerase chain reaction (PCR). Primer pairs for microRNA expression vectors were microRNA-195 forward: 5′-[…]-3′ (SEQ ID NO: 3), and reverse: 5′-[…]-3′ (SEQ ID NO: 4). The PCR products were inserted to the microRNA expression vectors. The clones carrying microRNA-195 was named pCDH-miR-195. The pCDH vector was used as control.
The miRNA expression vectors (pCDH-miR-195 and pCDH mock vector) and Lentivirus Package plasmid mix (System Biosciences, SBI) were cotransfected into 293TN cells with PureFection™ Transfection Reagent (System Biosciences; Mountain View, Calif., USA), and Lenti-X Concentrator (Clontech, USA) was used for concentration. Infectious titers were determined by counting GFP positive-293T cells using a fluorescence microscope.
0.1 ml PBS with 10^7 IFU Lentivirus containing pCDH-miR-195 or a control vector was injected to the tail veil of the apoE−/− mice that were under a high fat diet. The injection was repeated once a week for a total of 12 weeks. Changes in body weight of the apoE−/− mice treated with Lentivirus containing pCDH-miR-195 (the microRNA-195 treatment group) and the apoE−/− mice treated with Lentivirus containing the control vector (the control group) were recorded every week and are shown in FIG. 7. When the experiment was completed, the mice of the microRNA-195 treatment group and the mice of the control group were sacrificed.
Biochemical indexes, such as blood urea nitrogen (BUN) and creatinine (CRE) for renal function, GOT (AST) and GPT (ALT) for liver function, fasting blood sugar (GLU), total cholesterol (T-CHO), high density lipoprotein (HDL), low density lipoprotein (LDL) and triglyceride (TG) of the blood of mice of the microRNA-195 treatment group and mice of the control group were determined and are shown in Table 2, respectively. Indexes for weight of various organs to body weight (organ weight/body weight) of mice of the microRNA-195 treatment group and the mice of the control group were determined and are shown in Table 3, respectively.

[1] = system: vascular smooth muscle cells (VSMC); assay: WST-1 cell proliferation assay of VSMC stimulated with ox-LDL; type: cell-based, human; details: ox-LDL 40 μg/ml, 24 hours
Description: The experiments were conducted in the primary aortic smooth muscle cells (purchased as cryopreserved tertiary cultures from Cascade Biologics, OR, USA) at passages 4 to 8. The VSMC cells were maintained in an M231 culture medium supplemented with fetal bovine serum (FBS, 5%), human epidermal growth factor (10 ng/ml), human basic fibroblast growth factor (3 ng/ml), insulin ([…]), penicillin (100 units/ml), streptomycin ([…]), and Fungizone ([…]). The cultures were kept at a temperature of 37° C. in an atmosphere of 5% CO2 in air.
The transfection was performed using a siPort NeoFx reagent (Ambion) and VSMC cell proliferation and migration were evaluated 24 hours after the microRNA-195 transfection. In addition, simvastatin was used, a widely used lipid lowering drug and anti-atherosclerosis drug, to test the influence of microRNA-195 levels by simvastatin.
VSMC is an established model for atherosclerosis studies and when atherosclerosis incursion VSMC proliferation increases. A VSMC proliferation rate was used as a surrogate for the development of atherosclerosis, which was assessed by WST-1. By using a 1-3 μL siPort NeoFx (Ambion) reagent, 0-120 nM of microRNA-195 (Pre-miR™ miRNA, hsa-miR-195 (product ID PM10827), Ambion Inc.) was transfected into the VSMC cells while they were incubated with ox-LDL (40 μg/ml) for 24 hours. […] The microplates were then read by a spectrophotometer by measuring the absorbance of a dye with a wavelength of 450 nm and a reference wavelength of 600 nm (Benchmark PLUS Microplate Spectrophotometer, Bio-Rad) and plotted. […]
Cell proliferation of the VSMC was evaluated following incubation in ox-LDL (40 μg/ml) for 24 hours in the presence of microRNA-195 (Pre-miR miRNA, hsa-miR-195 (product ID PM10827), Ambion Inc.) (100 nM), simvastatin (1 nM) or Panax Notoginseng (in a form of water extract with concentration of 1 mg/ml; Chuang Song Zong Pharmaceutical co. Ltd), or in the presence of microRNA-195 (100 nM) with simvastatin (1 nM) or with Panax Notoginseng (in a form of water extract with concentration of 1 mg/ml). […]

IL-6 = assay: Real-time qPCR of IL-6 mRNA in HUVECs co-cultured with transfected HASMCs; type: cell-based, human; details: co-cultured with microRNA-195-transfected HASMCs
Description: as §1

TNF-a = assay: Real-time qPCR of TNF-a mRNA in HUVECs co-cultured with transfected HASMCs; type: cell-based, human; details: co-cultured with microRNA-195-transfected HASMCs
Description: as §1

[2] = Lentivirus containing pCDH-miR-195, 12 weeks, high fat diet
[3] = Lentivirus containing pCDH-miR-195 vs control group, from Table 2
[4] = blood, Lentivirus containing pCDH-miR-195 10^7 IFU tail vein weekly, 12 weeks, high fat diet

microRNA-195: Pre-miR miRNA, hsa-miR-195 (product ID PM10827), Ambion Inc., which mimics precursor for mature human miR-195; mimic 5′-UAGCAGCACAGAAAUAUUGGC-3′ (SEQ ID NO: 5) (chemistry not given here)
VCAM-1 mRNA level in HUVECs (VCAM-1): suppresses | Heart weight/body weight, average (apoE−/− mice; [2]): 0.49% | Kidney weight/body weight, average (apoE−/− mice; [2]): 1.20% | Liver weight/body weight, average (apoE−/− mice; [2]): 3.35% | Lung weight/body weight, average (apoE−/− mice; [2]): 0.72% | Spleen weight/body weight, average (apoE−/− mice; [2]): 0.32% | HDL increase (apoE−/− mice; [3]): 77% | triglyceride decrease (apoE−/− mice; [3]): 26% | blood sugar level versus placebo treated animals (apoE−/− mice; Lentivirus containing pCDH-miR-195 vs control vector, high-fat diet): lower | control of the increase of body weight (apoE−/− mice; Lentivirus containing pCDH-miR-195 vs control vector, high-fat diet, 12 weeks): better than the placebo | BUN (blood urea nitrogen), average (apoE−/− mice; [4]): 21.5 | CRE (creatinine), average (apoE−/− mice; [4]): 0.7 | GLU (fasting blood sugar), average (apoE−/− mice; [4]): 166.5 | GOT (AST), average (apoE−/− mice; [4]): 118.5 | GPT (ALT), average (apoE−/− mice; [4]): 28.5 | HDL (high density lipoprotein), average (apoE−/− mice; [4]): 11.5 | T-CHO (total cholesterol), average (apoE−/− mice; [4]): 711.5 | TG (triglyceride), average (apoE−/− mice; [4]): 141 | reduction of VSMC cell proliferation ([1]; 30 nM transfected): 21% | reduction of VSMC cell proliferation ([1]; 60 nM transfected): 29% | reduction of VSMC cell proliferation ([1]; 120 nM transfected): 45% | IL-6 mRNA level in HUVECs (IL-6): suppresses | TNF-a mRNA level in HUVECs (TNF-a): suppresses
